Measurements: PMC5500233 (Peptides, 2016)
Where “and” joins values, the source holds several entries; their conditions need not be identical. Identical values can stand only once. Entries after “also recorded” stand apart in the source; their conditions may differ.

Columns and labels:
[1] = tested on: DPP 3; details: ref [2],[15]; cited from earlier work
[2] = tested on: purified Ang-(1–7) peptidase from HK-2 cells; assay: JMV-390 inhibition of ^125I-Ang-; format: biochemical, human; details: JMV-390, Fig. 3: 0.5 and 10 nM
[3] = molecular target: T1, human DPP 3 (Homo sapiens, UniProt Q9NY33); assay: JMV-390 inhibition of ^125I-Ang-; format: biochemical; details: JMV-390, Fig. 3: 0.5 and 10 nM
T1 sequence (Q9NY33 1-737): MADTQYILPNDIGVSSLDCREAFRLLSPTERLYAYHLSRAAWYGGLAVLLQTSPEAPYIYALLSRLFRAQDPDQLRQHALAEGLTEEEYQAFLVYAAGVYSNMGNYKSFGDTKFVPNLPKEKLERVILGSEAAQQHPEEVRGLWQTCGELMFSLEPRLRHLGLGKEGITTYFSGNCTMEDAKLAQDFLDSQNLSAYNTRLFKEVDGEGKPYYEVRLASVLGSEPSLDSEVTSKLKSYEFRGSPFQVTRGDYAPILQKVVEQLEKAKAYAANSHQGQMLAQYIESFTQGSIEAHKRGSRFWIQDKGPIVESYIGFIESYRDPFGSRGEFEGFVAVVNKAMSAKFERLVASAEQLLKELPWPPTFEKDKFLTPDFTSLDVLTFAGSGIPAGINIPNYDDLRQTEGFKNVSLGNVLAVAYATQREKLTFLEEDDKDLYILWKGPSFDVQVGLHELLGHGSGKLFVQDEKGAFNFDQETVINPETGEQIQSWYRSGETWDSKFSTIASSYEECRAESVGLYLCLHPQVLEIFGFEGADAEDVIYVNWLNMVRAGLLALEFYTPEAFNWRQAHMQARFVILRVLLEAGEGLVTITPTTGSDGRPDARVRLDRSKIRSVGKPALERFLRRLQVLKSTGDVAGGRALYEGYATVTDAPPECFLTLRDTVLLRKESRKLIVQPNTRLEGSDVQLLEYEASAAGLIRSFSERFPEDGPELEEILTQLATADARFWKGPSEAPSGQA

[4] = molecular target: T1, human DPP 3; assay: Metabolism of unlabeled Ang-; format: biochemical; details: 100 μM Ang-(1–7), 37 °C, HPLC-UV
[5] = tested on: DPP 3 activity in HK-2 cells; assay: ^125I-Ang-; format: cell-based, human; details: for peptidase activity: mean±SEM, control 136±6
[6] = tested on: HK-2 cells; assay: Intracellular Ang-; format: cell-based, human
[7] = molecular target: Ang-(1–7) peptidase, partially purified fraction from brain medulla; details: JMV-390; brain medulla Ang-(1–7) peptidase; ref [15]; cited from earlier work
[8] = molecular target: Ang-(1–7) peptidase in renal tubules; details: JMV-390, ref [15],[25]; cited from earlier work
[9] = tested on: TOP expressed in the HK-2 cells; details: high dose of JMV-390; ref [25]; cited from earlier work
[10] = tested on: Ang-(1–7) RIA; details: as previously described; ref [27]; cited from earlier work
[11] = molecular target: T1, human DPP 3; assay: Kinetic studies of Ang-; format: biochemical; details: 37 °C, n=3
[12] = tested on: Ang-(1–7) peptidase, partially purified fraction from brain medulla; details: ref [15], cited from earlier work
[13] = tested on: HK-2 peptidase; details: ref [25]; cited from earlier work

## O=C(O)CN(CCN(CC(=O)O)CC(=O)O)CC(=O)O [EDTA]
[1]
  sensitivity of DPP 3 to thiol inhibitors and chelating agents: unusual sensitivity

## CC[C@H](C)[C@H](NC(=O)[C@@H](CC(=O)NO)Cc1ccccc1)C(=O)N[C@@H](CC(C)C)C(=O)O [JMV-390]
[2]
  effect on Ang-(1–7) hydrolysis by purified Ang-(1–7) peptidase: abolished; also recorded: attenuated the metabolism
[3]
  effect on Ang-(1–7) hydrolysis by DPP 3: abolished; also recorded: attenuated the metabolism
[4]; JMV-390 1 μM, 100 ng DPP 3, 60 min
  metabolism of unlabeled Ang-(1–7) to Ang-(5–7) in presence of inhibitor: attenuated the metabolism of Ang-(1–7)
[5]; 20 nM JMV-390, 72 h, n = 2
  peptidase activity: 76 ± 13 fmol/min/mg
[5]; 200 nM JMV-390, 72 h, n = 3, p<0.05
  peptidase activity: 17 ± 3 fmol/min/mg
[5]; 200 nM JMV-390, 72 h, vs control, n = 3, p<0.05
  reduction of peptidase (DPP 3) activity: 85% and > 80%
[5]; 20 or 200 nM JMV-390, 72 h, 100,000 × g cytosolic fraction
  effect on metabolism of ^125I-Ang-(1–7) to ^125I-Ang-(3-4): significantly reduced the metabolism
[6]; 20 nM JMV-390, 72 h
  effect on intracellular content of Ang-(1–7): tended to augment the cellular levels of Ang-(1–7); also recorded: increased the intracellular content of Ang-(1–7)
[6]; 20 nM JMV-390, 72 h, vs basal, n = 3, not statistically significant
  increase in Ang-(1–7) content: 68%
[6]; 200 nM JMV-390, 72 h
  effect on intracellular content of Ang-(1–7): significantly decreased the content of Ang-(1–7)
[6]; 200 nM JMV-390, 72 h, RIA, mean±SEM, n = 3, p<0.05 vs 20 nM JMV-390, basal 22 ±2
  Ang-(1–7) content: 15 ±3 fmols/mg protein
[6]; lower dose (20 nM) of JMV-390, not statistically significant
  increase in cellular levels of Ang-(1–7): approximately 2 fold
[7]
  IC50: < 1 nM
[8]
  IC50: ~1 nM
[9]
  direct conversion of ^125I-Ang I to ^125I-Ang-(1–7) by TOP: inhibited the direct conversion

## O=C(O)c1cc[c]([Hg][Cl])cc1 [PCMB]
[1]
  sensitivity of DPP 3 to thiol inhibitors and chelating agents: unusual sensitivity

## c1cnc2c(c1)ccc1cccnc12 [ophenanthroline]
[1]
  sensitivity of DPP 3 to thiol inhibitors and chelating agents: unusual sensitivity

## APMA
[1]
  sensitivity of DPP 3 to thiol inhibitors and chelating agents: unusual sensitivity

## Ang II: angiotensin peptide (DRVYIHPF; Angiotensin-2; UniProt P01019 25-32, looked up)
[10]
  recognition by Ang-(1–7) RIA (cross-reactivity): < 0.01%

## Ang-(2–7): angiotensin peptide recognized by the Ang-(1–7) RIA (RVYIHP; UniProt P01019 26-31, looked up, fragment)
[10]
  recognition by Ang-(1–7) RIA: recognizes

## Angiotensin-(1–7) [Ang-(1–7)]
[11]
  kcat: 7.3 s⁻¹
[4]; 100 ng human DPP 3, 60 min
  product of unlabeled Ang-(1–7) hydrolysis: a major peak corresponding to the metabolite Ang-(5–7)
[12]; enriched brain medulla peptidase
  hydrolysis rate, fold higher than Ang II: 12 fold

## [Abz-Asp^1, Tyr (NO2)^7]-Ang-(1–7)]
[13]
  hydrolysis by HK-2 peptidase: resistant

## apelin 13
[12]
  metabolism by enriched peptidase: failed to metabolize

## bradykinin (RPPGFSPFR; Bradykinin; UniProt P01042 381-389, looked up)
[12]
  metabolism by enriched peptidase: failed to metabolize

## neurotensin
[12]
  metabolism by enriched peptidase: failed to metabolize
